We go through 8 molecules from patent publication US20220324835A1 (Nurix Therapeutics, Inc., priority 2018, published 2022).

Bounds are passed on as bounds.

For assay [1], the target named is T1, Cbl-b (Homo sapiens, UniProt Q13191). The assay can be described thus: Cbl-b activity assay (Cbl-b inhibition assay), TR-FRET of Cbl-b interaction with UbcH5B-Ub. Conditions: assay buffer with 100 mM NaCl, 60 nM Src kinase; read-out: Cbl-b activity IC50. Type of assay: biochemical. Summed up: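 UbcH5B (C85K) conjugated to N-terminally Bodipy-Fluorescein-labeled ubiquitin served as the fluorescent partner. After compound preincubation, Src kinase (60 nM) with 1 mM ATP and 5 mM MgCl2 (final) was added for 1.5 h, followed by a further 1 h incubation. Some values were obtained with 50 mM NaCl and 30 nM Src.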
T1 sequence (Q13191 36-427): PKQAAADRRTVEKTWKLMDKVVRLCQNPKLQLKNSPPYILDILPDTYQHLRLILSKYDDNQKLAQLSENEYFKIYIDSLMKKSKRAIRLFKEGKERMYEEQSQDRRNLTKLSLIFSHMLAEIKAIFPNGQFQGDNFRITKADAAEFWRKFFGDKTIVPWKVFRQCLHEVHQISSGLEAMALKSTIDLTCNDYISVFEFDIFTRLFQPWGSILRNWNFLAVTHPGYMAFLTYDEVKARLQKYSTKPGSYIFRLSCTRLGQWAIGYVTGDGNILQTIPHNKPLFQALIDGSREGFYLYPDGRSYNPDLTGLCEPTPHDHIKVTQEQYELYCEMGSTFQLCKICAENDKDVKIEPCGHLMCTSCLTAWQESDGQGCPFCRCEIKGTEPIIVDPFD

Assay [2] relates to T-cell. Kind of assay: CD25 cell surface staining on T-cells stimulated with anti-CD3 antibody alone (Biological Example 2). The assay is classed as cell-based. The settings on record: primary human total T-cells, baseline = anti-CD3/anti-CD28 stimulated cells without inhibitor, read-out: CD25 staining, Anti-CD3 stimulation, fold change over baseline; for fold induction at 1 µM: 1 μM compound; for fold induction at 8 µM: 8 μM compound.

A further assay addresses Cbl-b (residues 36-427) (Homo sapiens, UniProt Q13191). The assay can be described thus: Cbl-b binding assay (SPR, Biacore T200). The settings on record: 20° C., 1:1 binding model. Put shortly: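 Steps: capture protein on NeutrAvidin surface; inject compound dilutions (8 or 10 points from 100 or 50 μM) 50 s; allow 90-180 s dissociation; regenerate 20 s with 0.3 M NaCl. Runs at 20° C in HEPES pH 7.5/100 mM NaCl/2% DMSO; 1:1 fitting.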
For orientation: Surface plasmon resonance follows binding to a sensor surface in real time, without labels.

Assay [3] has as its system T-cell. The assay can be described thus: IL-2 secretion from T-cells stimulated with anti-CD3 antibody alone (Biological Example 2). Type of assay: cell-based. The settings on record: primary human total T-cells, read-out: IL-2 secretion, Anti-CD3 stimulation, fold change over baseline; for fold induction at 1 µM: 1 μM compound; for fold induction at 8 µM: 8 μM compound.

For assay [4], the target named is T1, Cbl-b. Kind of assay: Cbl-b inhibition assay (Cbl-b activity assay, FRET, Biological Example 1; 100 mM NaCl, 60 nM Src kinase). Type of assay: biochemical. Conditions: upper bound stated in text lists; read-out: IC50 values in the Cbl-b inhibition assay of Biological Example 1. Put shortly:
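TR-FRET assay using N-terminal biotinylated Avi-tagged Cbl-b bound to streptavidin-terbium, Src kinase for Cbl-b phosphorylation, and UbcH5B irreversibly conjugated to Bodipy-Fluorescein-ubiquitin. Phosphorylated Cbl-b binds UbcH5B-Ub, bringing the fluorophores together; inhibition is read as loss of FRET signal.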

In assay [5] the test system is T-cell. The assay can be described thus: IL-2 secretion from T-cells co-stimulated with anti-CD3 and anti-CD28 antibody (Biological Example 2). The assay is classed as cell-based, human. Conditions: Homo sapiens, T-cell, primary human total T-cells, baseline = anti-CD3/anti-CD28 stimulated cells without inhibitor, read-out: IL-2 secretion, Anti-CD3/Anti-CD28 stimulation, fold change over baseline; for fold induction at 0.3 µM: 0.3 μM compound; for fold induction at 1 µM: 1 μM compound; for fold induction at 4 µM: 4 μM compound. Put shortly:
(§1)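 T-cells were stimulated with anti-CD3 antibody alone or with anti-CD28 antibody, in the presence or absence of Cbl-b inhibitor. IL-2 secretion or CD25 surface staining was measured, and values expressed as fold over the uninhibited baseline […].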

In assay [6] the test system is T-cell. The assay can be described thus: CD25 cell surface staining on T-cells co-stimulated with anti-CD3 and anti-CD28 antibody (Biological Example 2). Type of assay: cell-based, human. Conditions: Homo sapiens, T-cell, primary human total T-cells, baseline = anti-CD3/anti-CD28 stimulated cells without inhibitor, read-out: CD25 staining, Anti-CD3/Anti-CD28 stimulation, fold change over baseline; for fold induction at 0.3 µM: 0.3 μM compound; for fold induction at 1 µM: 1 μM compound; for fold induction at 4 µM: 4 μM compound. Summed up: as §1

As usually defined, the IC50 is the concentration at which inhibition is half-maximal. The Kd is the constant that tells how readily two partners part at equilibrium.

Chain of Cbl-b (residues 36-427) (Q13191 36-427): as above

For `Cc1c[nH]nc1C[C@@H](C)c1cccc(N2Cc3c(cc(C(=O)N4CCC(O)C4)cc3C(F)(F)F)C2=O)c1` (stereo in doubt) [Compound 463, 6-((S)-3-hydroxypyrrolidine-1-carbonyl)-2-(3-((R)-1-(4-methyl-1H-pyrazol-3-yl)propan-2-yl)phenyl)-4-(trifluoromethyl)isoindolin-1-one], the IC50 on Cbl-b [1] is less than 100 nM; at Cbl-b [4], not above 100 nM. The fold induction at 1 µM with T-cell [2] was in the range of 0.801 to 1; in the assay on T-cell [3], 0.101 to 0.15; in the assay on T-cell [5] it was 2.51 to 5; in the assay on T-cell [6], 1.01 to 1.3. Besides, the fold induction at 8 µM in the assay with T-cell [2] was more than 1; in the assay with T-cell [3], more than 0.201. Besides, the Kd on Cbl-b (residues 36-427) is less than 100 nM. Further, the fold induction at 0.3 µM was 1.01 to 2.5 in the assay on T-cell [5] and 1.01 to 1.3 with T-cell [6]. In addition, the results for the fold induction at 4 µM in the assay on T-cell [5] and with T-cell [6] were more than 7.5 and 1.31 to 1.5, respectively.

On to `Cn1cnnc1[C@H](F)C(C)(F)c1cccc(N2Cc3c(cccc3C(F)(F)F)C2=O)c1` (stereo in doubt) [Compound 479, 2-(3-((1S,2S)-1,2-difluoro-1-(4-methyl-4H-1,2,4-triazol-3-yl)propan-2-yl)phenyl)-4-(trifluoromethyl)isoindolin-1-one], for which the IC50 was less than 100 nM on Cbl-b [1] and not above 100 nM on Cbl-b [4]. For the same molecule, the fold induction at 1 µM was 0.601 to 0.8 in the assay with T-cell [2], less than 0.05 in the assay with T-cell [3], 1.01 to 2.5 in the assay on T-cell [5] and 1.01 to 1.3 with T-cell [6]. Further, the values for the fold induction at 8 µM in the assay on T-cell [2] and in the assay on T-cell [3] were 0.801 to 1 and 0.101 to 0.15, respectively. Further, the dissociation constant (Kd) at Cbl-b (residues 36-427) lay in the range of 100 to 300 nM. In addition, the fold induction at 0.3 µM in the assay on T-cell [5] was in the range of 1.01 to 2.5; with T-cell [6], 1.01 to 1.3. The fold induction at 4 µM in the assay on T-cell [5] fell in the range of 1.01 to 2.5; with T-cell [6] it was 1.01 to 1.3.

As to `C[C@H](O)CNc1cc([C@H](C)Cc2nncn2C)cc(N2Cc3c(cccc3C(F)(F)F)C2=O)n1` [Compound 364, 2-(6-((S)-2-hydroxypropylamino)-4-((R)-1-(4-methyl-4H-1,2,4-triazol-3-yl)propan-2-yl)pyridin-2-yl)-4-(trifluoromethyl)isoindolin-1-one], the IC50 on Cbl-b [1] was in the range of 301 to 1000 nM. Moreover, in the assay on T-cell [2], the fold induction at 1 µM fell in the range of 0.601 to 0.8 and the fold induction at 8 µM was in the range of 0.601 to 0.8. This molecule also came in with a Kd at Cbl-b (residues 36-427) of 1000 to 3000 nM. Further, in the assay with T-cell [3], the fold induction at 1 µM lay in the range of 0.051 to 0.1 and the fold induction at 8 µM was in the range of 0.101 to 0.15. Further, in the assay with T-cell [5], the fold induction at 0.3 µM fell in the range of 1.01 to 2.5, the fold induction at 1 µM lay in the range of 1.01 to 2.5 and the fold induction at 4 µM was in the range of 1.01 to 2.5. In the assay on T-cell [6], the fold induction at 0.3 µM lay within 1.01 to 1.3, the fold induction at 1 µM lay in the range of 1.01 to 1.3 and the fold induction at 4 µM fell in the range of 1.01 to 1.3.

With `C[C@H](CO)Nc1cc([C@H](C)Cc2nncn2C)cc(N2Cc3c(cccc3C(F)(F)F)C2=O)n1` [Compound 366, 2-(6-((R)-1-hydroxypropan-2-ylamino)-4-((R)-1-(4-methyl-4H-1,2,4-triazol-3-yl)propan-2-yl)pyridin-2-yl)-4-(trifluoromethyl)isoindolin-1-one], the IC50 is 100 to 300 nM at Cbl-b [1] and not above 300 nM on Cbl-b [4]. For the same molecule, the fold induction at 1 µM with T-cell [2] was in the range of 0.801 to 1; in the assay with T-cell [3], 0.051 to 0.1; in the assay on T-cell [5] it was 2.51 to 5; in the assay on T-cell [6] it was 1.01 to 1.3. In addition, the fold induction at 8 µM is more than 1 in the assay with T-cell [2] and more than 0.201 in the assay on T-cell [3]. This molecule had a Kd on Cbl-b (residues 36-427) of 100 to 300 nM. For the same molecule, the fold induction at 0.3 µM lay within 1.01 to 2.5 in the assay on T-cell [5] and 1.01 to 1.3 in the assay on T-cell [6]. Also, the fold induction at 4 µM was 5 to 7.5 in the assay with T-cell [5] and 1.31 to 1.5 in the assay with T-cell [6].

For `Cc1conc1C[C@@H](C)c1cccc(N2Cc3c(cccc3C(F)(F)F)C2=O)c1` [Compound 367a, (R)-2-(3-(1-(4-Methylisoxazol-3-yl)propan-2-yl)phenyl)-4-(trifluoromethyl)isoindolin-1-one], the IC50 is 100 to 300 nM on Cbl-b [1] and not above 300 nM on Cbl-b [4]. In addition, the fold induction at 1 µM was 0.601 to 0.8 in the assay with T-cell [2], 0.051 to 0.1 in the assay on T-cell [3], less than 1 with T-cell [5] and less than 1 with T-cell [6]. In addition, the figures for the fold induction at 8 µM with T-cell [2] and with T-cell [3] were 0.801 to 1 and 0.151 to 0.2, respectively. The molecule further returned a Kd on Cbl-b (residues 36-427) of 1000 to 3000 nM. For the same molecule, the results for the fold induction at 0.3 µM in the assay on T-cell [5] and in the assay on T-cell [6] were less than 1 and 1.01 to 1.3, respectively. Moreover, the fold induction at 4 µM with T-cell [5] lay in the range of 1.01 to 2.5; with T-cell [6], 1.01 to 1.3.

As for `C[C@H](Cc1nncn1C)c1cccc(N2Cc3c(cc(C4CC4)nc3C3CC3)C2=O)c1` [Compound 370, 4,6-dicyclopropyl-2-{3-[(2R)-1-(4-methyl-1,2,4-triazol-3-yl)propan-2-yl]phenyl}-3H-pyrrolo[3,4-c]pyridin-1-one], the IC50 at Cbl-b [1] is 100 to 300 nM; at Cbl-b [4] it was not above 300 nM. Moreover, the fold induction at 1 µM in the assay on T-cell [2] was in the range of 0.601 to 0.8; in the assay with T-cell [3] it was 0.051 to 0.1; in the assay with T-cell [5] it was 1.01 to 2.5; in the assay with T-cell [6], 1.01 to 1.3. Moreover, the fold induction at 8 µM in the assay with T-cell [2] was 0.801 to 1; in the assay on T-cell [3], more than 0.201. At Cbl-b (residues 36-427), this molecule yielded a Kd of 100 to 300 nM. For the same molecule, the fold induction at 0.3 µM in the assay on T-cell [5] lay within 1.01 to 2.5; in the assay on T-cell [6] it was 1.01 to 1.3. Besides, the fold induction at 4 µM was 5 to 7.5 with T-cell [5] and more than 1.76 in the assay with T-cell [6].

As for `C[C@H](Cc1nncn1C)c1cccc(N2Cc3c(ccnc3C(F)(F)F)C2=O)c1` [Compound 371, (R)-2-(3-(1-(4-methyl-4H-1,2,4-triazol-3-yl)propan-2-yl)phenyl)-4-(trifluoromethyl)-2,3-dihydro-1H-pyrrolo[3,4-c]pyridin-1-one], the IC50 at Cbl-b [1] is 100 to 300 nM; at Cbl-b [4], not above 300 nM. Further, the fold induction at 1 µM was 0.801 to 1 with T-cell [2], 0.101 to 0.15 in the assay with T-cell [3], 2.51 to 5 in the assay on T-cell [5] and 1.01 to 1.3 with T-cell [6]. Further, the fold induction at 8 µM is more than 1 in the assay on T-cell [2] and more than 0.201 in the assay on T-cell [3]. The molecule further showed a Kd at Cbl-b (residues 36-427) of 301 to 1000 nM. In addition, the figures for the fold induction at 0.3 µM in the assay with T-cell [5] and in the assay on T-cell [6] were 1.01 to 2.5 and 1.01 to 1.3, respectively. For the same molecule, the fold induction at 4 µM in the assay on T-cell [5] was 5 to 7.5; in the assay with T-cell [6], 1.01 to 1.3.

Turning to `Cn1cnnc1[C@H](F)[C@](C)(F)c1cccc(N2Cc3c(cc(C4CC4)cc3C(F)(F)F)C2=O)c1` [Compound 481a, 6-cyclopropyl-2-[3-[(1S,2R)-1,2-difluoro-1-(4-methyl-4H-1,2,4-triazol-3-yl)propan-2-yl]phenyl]-4-(trifluoromethyl)-2,3-dihydro-1H-isoindol-1-one], the half-inhibitory concentration (IC50) on Cbl-b [1] lay within 100 to 300 nM. For the same molecule, in the assay with T-cell [2], the fold induction at 1 µM lay within 0.801 to 1 and the fold induction at 8 µM is more than 1. The same molecule returned a Kd on Cbl-b (residues 36-427) of 100 to 300 nM. Further, in the assay on T-cell [3], the fold induction at 1 µM lay within 0.051 to 0.1 and the fold induction at 8 µM is 0.101 to 0.15. Further, in the assay with T-cell [5], the fold induction at 0.3 µM was less than 1, the fold induction at 1 µM is 1.01 to 2.5 and the fold induction at 4 µM was 2.51 to 5. In the assay on T-cell [6], the fold induction at 0.3 µM lay within 1.01 to 1.3, the fold induction at 1 µM is 1.01 to 1.3 and the fold induction at 4 µM lay in the range of 1.01 to 1.3.
